Holding throughout (experiment): NCI-60 cell line screen, 48 h
Assay [1] has as its system EKVX NSCLC.
For assay [2], the system named is IGROV1 ovarian.
The test system of assay [3] is OVCAR-4 ovarian.
In assay [4] the test system is RXF 393 renal.
Assay [5] has as its system SF-539 CNS.
The subject of assay [6] is SK-MEL-5 melanoma.
Assay [7] deals with SK-OV-3 ovarian.
Assay [8] deals with SNB-75 CNS.
In assay [9] the test system is ACHN renal.
The subject of assay [10] is CAKI-1 renal.

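Assay format: 96-well plates, 48-hour exposure. TGI marks complete inhibition of growth.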

For the compound `COC(=O)C(C/C=C(\C)c1ccc(Cl)cc1)C(C)=O` (centres undefined), the TGI was more than 100 µM in assay [1]; more than 100 µM in [2]; more than 100 µM in assay [3]; more than 95.9 µM in assay [4]; more than 100 µM in [5]; 51.7 µM in [6]. Further, the TGI in assay [7] was more than 100 µM; in assay [8], more than 94.6 µM.

Turning to `O=C(c1ccc(Cl)cc1)N(C(=S)OCc1ccccn1)c1ccccc1`, the TGI in [9] is more than 100 µM; in assay [10], more than 100 µM; in assay [1] it was 84.4 µM; in [2], more than 100 µM; in assay [4], 56.6 µM; in [5], more than 100 µM. In addition, the TGI in assay [6] and in [7] was more than 100 µM in each case.

On to `COC(=O)C1(C(=O)OC)N=C(C)OC1/C=C/c1ccccc1` (centres undefined), for which the TGI in [9], in [10], in assay [1], in [2], in [3] and in assay [4] was more than 100 µM in each case. The TGI in assay [6], in [7] and in [8] was more than 100 µM in each case.

Regarding `COc1ccc(C(=O)/C=C/c2ccc(OCCSCCCCCCCCCCSCCOc3ccc(/C=C/C(=O)c4ccc(OC)c(OC)c4)cc3)cc2)cc1OC`, the TGI in [9], in assay [10], in assay [1], in assay [2], in [5] and in assay [6] was more than 100 µM each time. Also, the TGI in [7] and in [8] was more than 100 µM in each case.

Regarding `CSc1nc2c(ncn2C2OCC(O)C(O)C2O)c(=O)n1C` (centres undefined), the TGI in [1], in assay [2], in assay [3], in assay [4], in [5] and in assay [6] was more than 100 µM in each case. The TGI in assay [7] and in assay [8] was more than 100 µM each time.

Take `COP(=O)(OC)C(O)CC(C)C` (centres undefined): the TGI in assay [9], in assay [10], in assay [1], in [3], in assay [4] and in [6] was more than 100 µM throughout. For the same compound, the TGI in [7] and in assay [8] was more than 100 µM in each case.

For the compound `CSc1ncc2c(n1)sc1c(=O)n(-c3ccccc3)cnc12`, the TGI in [9], in [10], in [2], in [3], in assay [4] and in assay [6] was more than 100 µM throughout. Moreover, the TGI in assay [7] and in [8] was more than 100 µM throughout.

On to `O=C(NCCNCCCNC(=O)c1cc(-c2ccccc2)nc2ccccc12)c1cccc(OCc2ccccc2)c1OCc1ccccc1`, for which the TGI in [9] came to 3.11 µM; in [10] it was 3.01 µM; in [1], 3.1 µM; in [2], 3.44 µM; in assay [3] it was 3.03 µM; in assay [5], 3.19 µM. Further, the TGI in assay [6] worked out at 3.12 µM; in assay [7], 3.1 µM; in assay [8] it was 3.39 µM.

As for `COc1cc(C2C(Cl)C(=O)N2NC(=O)c2ccc(N)cc2)cc(Br)c1O` (centres undefined), the TGI in [9] is 45.1 µM; in [10], 30.7 µM; in assay [1] it was 31 µM; in assay [2], 34 µM; in [3] it was 35.1 µM; in assay [5] it was 35.2 µM. For the same compound, the TGI worked out at 31.7 µM in assay [6], 73 µM in assay [7] and 33.3 µM in assay [8].

For `COc1cc2c(cc1OCCCCOc1cc3c(cc1OC)C(=O)N1CCC[C@H]1C(=O)N3)N=C[C@@H]1CCCN1C2=O`, the TGI is 27.9 µM in [9]; 25.5 µM in assay [10]; 27.6 µM in assay [1]; 20.7 µM in [2]; 27.7 µM in assay [3]; 14.8 µM in [4]. Further, the TGI in [6] amounted to 14.8 µM; in assay [8], 18.1 µM.

Turning to `CC(C)(CCCCC(C)(C)[N+](C)(C)C)[N+](C)(C)C`, the TGI in assay [1], in assay [2], in [3], in [5], in assay [6] and in assay [7] was more than 100 µM in each case. The compound also came in with a TGI in assay [8] of more than 100 µM.

For the compound `O=C1CC(=O)NC(=NNS(=O)(=O)c2ccccc2)N1`, the TGI in assay [9], in [10], in [2], in assay [3], in [4] and in [5] was more than 100 µM in each case. For the same compound, the TGI in assay [6], in assay [7] and in [8] was more than 100 µM each time.

For the compound `O=C(OCc1ccccc1)N(CCCCN(CCCNCc1ccccc1)C(=O)OCc1ccccc1)CCCNCc1ccccc1`, the TGI in [9] was 2.93 µM; in [10], 2.93 µM; in assay [1], 2.94 µM; in assay [2] it was 2.05 µM; in [6], more than 100 µM; in assay [7], more than 100 µM. In addition, in assay [8], the TGI is 2.69 µM.

With `CC(OC(=O)C(CC(=O)OC(C)(C)C)NC(=O)OC(C)(C)C)C(=O)OCc1ccccc1` (centres undefined), the TGI in assay [9], in assay [10], in assay [1], in assay [2], in assay [3] and in assay [4] was more than 100 µM each time. The TGI in assay [5], in assay [7] and in assay [8] was more than 100 µM in each case.

With `OCCOc1ccccc2cccc1-2`, the TGI in assay [9], in assay [10], in assay [1], in [2], in assay [3] and in assay [5] was more than 100 µM each time. The TGI in assay [6], in assay [7] and in assay [8] was more than 100 µM throughout.

The record behind these values is PubChem BioAssay (NCI).
